# Experimental data as given in article PMC9304322, “Targeting retinoic acid receptor alpha-corepressor interaction activates chaperone-mediated autophagy and protects against retinal degeneration” (Nature Communications, 2022).
# Several values for one entry are separate records, joined by “and”; a condition that tells them apart may be missing. Equal entries are not always repeated.
# Experiment: Pharmacokinetic analysis, plasma and brain;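 as to Fig. 3a level, MEAN: plasma concentration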;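 as to Fig. 3a level, single animals 1-3: plasma concentration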;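 as to Fig. 3b level, MEAN: brain concentration in ng/g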;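 as to Fig. 3b level, single animals 1-3: brain concentration in ng/g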
# Type: in vivo, ICR (CD-1) male mice
# Parameters: Fig. 3a level, single animals 1-3 / Fig. 3a level, MEAN / Fig. 3b level, single animals 1-3 / Fig. 3b level, MEAN: unit not given here
# Details: for B/P, Brian/Plasma: P.O., individual animals
# Procedure: ICR (CD-1) male mice were fasted at least three hours and water was available ad libitum before the study. Animals were housed in a controlled environment, target conditions: temperature 18 to 29 °C, relative humidity 30 to 70%. Temperature and relative humidity was monitored daily. An electronic time-controlled lighting system was used to provide a 12 h light/12 h dark cycle. 3 mice for each indicated time point were administered 30 mg/Kg CA39 or CA77 by oral gavage or 1 mg/Kg CA39 or CA77 by intravenous injection using 30% PEG-400, 65% D5W (5% dextrose in water), 5% Tween-80 vehicle. Mice were sacrificed, and brain samples were harvested at […], 0.25 h, 0.5 h, 1 h, 2 h, 4 h, 8 h, 24 h, and analyzed for CA39 or CA77 levels using LC-MS/MS. Pharmacokinetics parameters were calculated using Phoenix WinNonlin 6.3. Experiments performed at SIMM-SERVIER joint Biopharmacy Laboratory.
smiles,measurement,setting,value
Clc1ccc2c(c1)OCC(c1ccc(-c3ccccc3)cc1)=N2 [CA39],"Fig. 3a level, MEAN","IV, Time 0.083 h",61.1254
same,"Fig. 3b level, MEAN","IV, Time 0.083 h",61.1254
same,"Fig. 3a level, MEAN","IV, Time 0.25 h",57.4762
same,"Fig. 3a level, single animals 1-3","IV, Time 0.25 h",71.3655 and 52.5276 and 48.5355
same,"Fig. 3b level, MEAN","IV, Time 0.25 h",421.667
same,"Fig. 3b level, single animals 1-3","IV, Time 0.25 h",231 and 301 and 733
same,"Fig. 3a level, MEAN","IV, Time 0.5 h",96.4163
same,"Fig. 3a level, single animals 1-3","IV, Time 0.5 h",97.156 and 95.5316 and 96.5614
same,"Fig. 3b level, single animals 1-3","IV, Time 0.5 h",253.229 and 219.924 and 96.4385
same,"Fig. 3a level, single animals 1-3","IV, Time 1 h",65.9772 and 7.434 and 72.9585
same,"Fig. 3b level, single animals 1-3","IV, Time 1 h",838.595 and 293.717 and 133.533
same,"Fig. 3a level, MEAN","IV, Time 2 h",127.026
same,"Fig. 3a level, single animals 1-3","IV, Time 2 h",125.63 and 157.282 and 98.1671
same,"Fig. 3b level, MEAN","IV, Time 2 h",775.11
same,"Fig. 3b level, single animals 1-3","IV, Time 2 h",875.96 and 812.85 and 636.52
same,"Fig. 3a level, MEAN","IV, Time 4 h",46.5654
same,"Fig. 3a level, single animals 1-3","IV, Time 4 h",39.4404 and 55.2956 and 44.9603
same,"Fig. 3b level, MEAN","IV, Time 4 h",580.088
same,"Fig. 3b level, single animals 1-3","IV, Time 4 h",625.12 and 582.925 and 532.22
same,"Fig. 3a level, single animals 1-3","IV, Time 8 h",53.1345 and 36.7923 and 35.4264
same,"Fig. 3b level, single animals 1-3","IV, Time 8 h",688.34 and 475.587 and 740.905
same,"Fig. 3a level, MEAN","IV, Time 24 h",8.834
same,"Fig. 3a level, single animals 1-3","IV, Time 24 h",7.122 and 12.7302 and 6.65
same,"Fig. 3b level, single animals 1-3","IV, Time 24 h",137.514 and 156.133 and 197.201
same,"B/P, Brian/Plasma",Time 0.25 h,3.427 and 5.487
same,"B/P, Brian/Plasma",Time 0.5 h,1.74 and 1.607
same,"B/P, Brian/Plasma",Time 1 h,6.477 and 4.807
same,"B/P, Brian/Plasma",Time 2 h,7.798 and 6.806
same,"B/P, Brian/Plasma",Time 4 h,5.185 and 9.171 and 14.1075
same,"B/P, Brian/Plasma",Time 8 h,9.709 and 14.5255
same,"B/P, Brian/Plasma",Time 24 h,21.0683
same,"Fig. 3b level, MEAN","PO, Time 0.25 h",110.007
same,"Fig. 3b level, single animals 1-3","PO, Time 0.25 h",143.332 and 91.145 and 95.5425
same,"Fig. 3b level, MEAN","PO, Time 0.5 h",246.705
same,"Fig. 3b level, single animals 1-3","PO, Time 0.5 h",250.188 and 244.993 and 244.933
same,"Fig. 3b level, single animals 1-3","PO, Time 1 h",302.13 and 49.5585 and 266.305
same,"Fig. 3a level, MEAN","PO, Time 2 h",103.157
same,"Fig. 3a level, single animals 1-3","PO, Time 2 h",111.712 and 104.237 and 93.5216
same,"Fig. 3b level, MEAN","PO, Time 2 h",582.568
same,"Fig. 3b level, single animals 1-3","PO, Time 2 h",673.81 and 487.02 and 586.875
same,"Fig. 3a level, MEAN","PO, Time 4 h",73.9526
same,"Fig. 3a level, single animals 1-3","PO, Time 4 h",120.568 and 63.5639 and 37.7259
same,"Fig. 3b level, MEAN","PO, Time 4 h",609.462
same,"Fig. 3b level, single animals 1-3","PO, Time 4 h",583.44 and 598.755 and 646.19
same,"Fig. 3a level, single animals 1-3","PO, Time 8 h",41.4288 and 48.9846 and 51.0072
same,"Fig. 3b level, single animals 1-3","PO, Time 8 h",620.035 and 487.115 and 529.995
same,"Fig. 3a level, MEAN","PO, Time 24 h",11.2914
same,"Fig. 3a level, single animals 1-3","PO, Time 24 h",11.8674 and 7.411 and 14.5959
